In patent US11958854B2 (Hydra Biosciences, LLC, priority 2013, dated 2024):

What follows are compounds tested against T1, hTRPC4 (Homo sapiens, UniProt Q9UBN4) (assay: Whole-cell patch clamp, inward current (Table B)). Conditions: IC50 estimated by testing at 5 μM and 500 nM, all batches, read-out: hTRPC4 Patch Inwd (nM) (All Batches).
T1 sequence (Q9UBN4 1-977): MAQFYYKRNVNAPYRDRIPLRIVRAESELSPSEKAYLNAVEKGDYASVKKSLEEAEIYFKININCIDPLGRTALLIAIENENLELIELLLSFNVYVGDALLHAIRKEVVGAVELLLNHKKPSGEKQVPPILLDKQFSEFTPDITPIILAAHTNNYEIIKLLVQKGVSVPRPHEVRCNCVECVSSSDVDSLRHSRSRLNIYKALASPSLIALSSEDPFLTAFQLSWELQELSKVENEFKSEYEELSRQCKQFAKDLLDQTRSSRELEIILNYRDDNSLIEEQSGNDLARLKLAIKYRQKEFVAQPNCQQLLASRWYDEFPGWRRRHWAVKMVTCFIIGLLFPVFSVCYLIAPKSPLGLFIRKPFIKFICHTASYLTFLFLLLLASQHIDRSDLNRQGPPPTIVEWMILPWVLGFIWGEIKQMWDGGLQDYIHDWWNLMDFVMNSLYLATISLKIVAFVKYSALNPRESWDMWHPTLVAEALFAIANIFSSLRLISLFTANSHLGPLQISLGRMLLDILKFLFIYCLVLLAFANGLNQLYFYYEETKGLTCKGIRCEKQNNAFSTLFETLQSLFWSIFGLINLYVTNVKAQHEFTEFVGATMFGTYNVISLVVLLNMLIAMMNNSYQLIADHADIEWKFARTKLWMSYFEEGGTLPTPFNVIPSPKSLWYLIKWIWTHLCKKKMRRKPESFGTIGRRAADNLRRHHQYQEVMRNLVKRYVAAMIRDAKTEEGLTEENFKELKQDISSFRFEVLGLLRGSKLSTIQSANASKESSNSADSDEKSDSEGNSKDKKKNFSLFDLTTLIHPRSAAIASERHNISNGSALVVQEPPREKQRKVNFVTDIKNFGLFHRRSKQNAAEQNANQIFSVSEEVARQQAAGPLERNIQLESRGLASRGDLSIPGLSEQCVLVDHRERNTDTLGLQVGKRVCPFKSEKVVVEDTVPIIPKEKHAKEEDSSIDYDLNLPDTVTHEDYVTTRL
Type: cell-based
From the text: Patch clamp experiments permit the detection of currents through the TRPC5 channel in the cell line described above. In normal whole-cell patch clamp recordings, a glass electrode is brought into contact with a single cell and a high-resistance (gigaohm) seal is established with the cell membrane. The membrane is then ruptured to achieve the whole-cell configuration, permitting control of the voltage of the cell membrane and measurement of currents flowing across the membrane using the amplifier attached to the electrode and resulting in the replacement of cytoplasm with the pipette solution. A perfusion system permits control of the extracellular solution, including the addition of blockers and activators of the current.
TRPC5 cells were induced 20-48 hours, removed from growth plates, and replated at low density (to attain good single-cell physical separation) on glass coverslips for measurement. In some cases, cells were grown in low density overnight on glass coverslips. Patch clamp recordings were made in the whole-cell mode with a holding potential of −40 mV. Every 5 seconds, a voltage ramp was applied from −120 to +100 mV, 400 ms in duration. Currents elicited were quantified at −80 mV and +80 mV. […] The external solution consisted of 150 mM NaCl, 4.5 mM KCl, 1 mM MgCl2, 2 mM CaCl2), 10 mM HEPES, 10 mM glucose, 1 mM EGTA, pH 7.4. […] Potential blockers were tested for ability to block both inward and outward currents in the continued presence of LaCl3.
“F” refers to agonist compounds. “ND” refers to compounds wherein the IC50 was not determined.

IC50, < 100 nM:
Cn1c(=O)n(CCCO)c(=O)c2c1nc(Oc1cccc(OC(F)(F)F)c1)n2Cc1ccc(Cl)cc1 [Example 30]
CCCOc1nc2c(c(=O)n(CCCO)c(=O)n2C)n1Cc1ccc(Cl)cc1 [Example 82]
CCn1c(=O)n(CCCO)c(=O)c2c1nc(Oc1cccc(OC(F)(F)F)c1)n2Cc1ccccc1 [Example 145]
Cc1cnc(Cn2c(Oc3cccc(OC(F)(F)F)c3)nc3c2c(=O)n(CCCO)c(=O)n3C)s1 [Example 161]
CC(C)c1ccccc1-c1nc2c(c(=O)n(CCCO)c(=O)n2C)n1Cc1ccccc1 [Example 485]
CC(C)CCn1c(Oc2cccc(OC(F)(F)F)c2)nc2c1c(=O)n(CCCO)c(=O)n2C [Example 587]
